Several values for one entry are separate records, joined by “and”; a condition that tells them apart may be missing. Equal values may be shown once. Toxic doses and inconclusive results are not listed. Cut-off read from the data, not from the text of the source: active = T/C of 150% or more; inactive = T/C below 125%.
Tested on: L1210 leukemia ip in BDF1 mice, survival T/C
Assay: NCI In Vivo Anticancer Drug Screen. Data for tumor model L1210 Leukemia (intraperitoneal) in B6D2F1 (BDF1) mice
Details: endpoint: mean survival time, higher = longer survival
Method in brief: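 Transplantable tumor model; survival measured in treated vs vehicle control mice. Value = treated/control.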

[1] = dose: 25.0 mg/kg/injection, schedule: Q01DX009 (ip), vehicle: saline with Tween-80
[2] = dose: 50.0 mg/kg/injection, schedule: Q01DX009 (ip), vehicle: saline with Tween-80
[3] = dose: 100.0 mg/kg/injection, schedule: Q01DX009 (ip), vehicle: saline with Tween-80
[4] = dose: 100.0 mg/kg/injection, schedule: Q01DX001 (ip), vehicle: carboxymethylcellulose (CMC)
[5] = dose: 200.0 mg/kg/injection, schedule: Q01DX001 (ip), vehicle: carboxymethylcellulose (CMC)
[6] = dose: 400.0 mg/kg/injection, schedule: Q01DX001 (ip), vehicle: carboxymethylcellulose (CMC)
[7] = dose: 100.0 mg/kg/injection, schedule: Q01DX001 (ip), vehicle: saline
[8] = dose: 200.0 mg/kg/injection, schedule: Q01DX001 (ip), vehicle: saline
[9] = dose: 100.0 mg/kg/injection, schedule: Q04DX003 (ip), vehicle: Klucel (hydroxypropylcellulose) (HPC)
[10] = dose: 200.0 mg/kg/injection, schedule: Q04DX003 (ip), vehicle: Klucel (hydroxypropylcellulose) (HPC)
[11] = dose: 100.0 mg/kg/injection, schedule: Q04DX003 (ip), vehicle: saline
[12] = dose: 200.0 mg/kg/injection, schedule: Q04DX003 (ip), vehicle: saline
[13] = dose: 400.0 mg/kg/injection, schedule: Q04DX003 (ip), vehicle: saline

Measured: T/C

CCCCOC(=S)SSC(=S)OCCCC
inactive: [1] 97 % of control | [2] 93 % of control | [3] 103 % of control and 104 % of control

O=C1NC2(CCCCCC2)C(=O)N1CN1CCOCC1
inactive: dose: 100.0 mg/kg/injection, schedule: Q01DX001 (ip), vehicle: Klucel (hydroxypropylcellulose) (HPC) 98 % of control | dose: 200.0 mg/kg/injection, schedule: Q01DX001 (ip), vehicle: Klucel (hydroxypropylcellulose) (HPC) 101 % of control | dose: 400.0 mg/kg/injection, schedule: Q01DX001 (ip), vehicle: Klucel (hydroxypropylcellulose) (HPC) 104 % of control

Oc1ccc2ccccc2c1N=Nc1ccc(F)cc1
inactive: dose: 25.0 mg/kg/injection, schedule: Q01DX015 (ip), vehicle: saline 101 % of control | dose: 50.0 mg/kg/injection, schedule: Q01DX015 (ip), vehicle: saline 96 % of control | dose: 60.0 mg/kg/injection, schedule: Q01DX015 (ip), vehicle: carboxymethylcellulose (CMC) 109 % of control | [4] 92 % of control | dose: 100.0 mg/kg/injection, schedule: Q01DX009 (ip), vehicle: carboxymethylcellulose (CMC) 95 % of control | dose: 100.0 mg/kg/injection, schedule: Q01DX015 (ip), vehicle: saline 96 % of control | dose: 100.0 mg/kg/injection, schedule: Q04DX003 (ip), vehicle: carboxymethylcellulose (CMC) 114 % of control | dose: 120.0 mg/kg/injection, schedule: Q01DX015 (ip), vehicle: carboxymethylcellulose (CMC) 104 % of control | [5] 92 % of control | dose: 200.0 mg/kg/injection, schedule: Q01DX009 (ip), vehicle: carboxymethylcellulose (CMC) 95 % of control | dose: 200.0 mg/kg/injection, schedule: Q01DX015 (ip), vehicle: saline 101 % of control | dose: 200.0 mg/kg/injection, schedule: Q04DX003 (ip), vehicle: carboxymethylcellulose (CMC) 97 % of control | dose: 240.0 mg/kg/injection, schedule: Q01DX015 (ip), vehicle: carboxymethylcellulose (CMC) 95 % of control | [6] 89 % of control | dose: 400.0 mg/kg/injection, schedule: Q01DX015 (ip), vehicle: saline 101 % of control | dose: 400.0 mg/kg/injection, schedule: Q04DX003 (ip), vehicle: carboxymethylcellulose (CMC) 100 % of control | dose: 480.0 mg/kg/injection, schedule: Q01DX015 (ip), vehicle: carboxymethylcellulose (CMC) 96 % of control

CCC1([N+](=O)[O-])COP(=O)(OP2(=O)OCC(CC)([N+](=O)[O-])CO2)OC1 (stereo not drawn)
inactive: [7] 116 % of control | [8] 97 % of control | dose: 400.0 mg/kg/injection, schedule: Q01DX001 (ip), vehicle: saline 100 % of control

CC1SC(=S)N(c2ccc(Cl)cc2)C1=O (stereo not drawn)
inactive: dose: 100.0 mg/kg/injection, schedule: Q01DX009 (ip), vehicle: Klucel (hydroxypropylcellulose) (HPC) 115 % of control | [9] 98 % of control | dose: 200.0 mg/kg/injection, schedule: Q01DX009 (ip), vehicle: Klucel (hydroxypropylcellulose) (HPC) 110 % of control | [10] 106 % of control

Nc1ccc(NC(=O)c2ccc3ccccc3c2O)c(Cl)c1
inactive: [9] 94 % of control | [10] 97 % of control | dose: 400.0 mg/kg/injection, schedule: Q04DX003 (ip), vehicle: Klucel (hydroxypropylcellulose) (HPC) 94 % of control

CCOP(=S)(NCCOC)OCC
inactive: [3] 97 % of control | dose: 200.0 mg/kg/injection, schedule: Q01DX009 (ip), vehicle: saline with Tween-80 94 % of control | dose: 400.0 mg/kg/injection, schedule: Q01DX009 (ip), vehicle: saline with Tween-80 95 % of control

CCNCC
inactive: [11] 93 % of control | [12] 101 % of control | [13] 101 % of control

O=C(COc1ccc(Cl)cc1)Nc1ccc(Br)cc1
inactive: dose: 100.0 mg/kg/injection, schedule: Q04DX002 (ip), vehicle: gum acacia 97 % of control | dose: 200.0 mg/kg/injection, schedule: Q04DX002 (ip), vehicle: gum acacia 106 % of control | dose: 400.0 mg/kg/injection, schedule: Q04DX002 (ip), vehicle: gum acacia 95 % of control

CCOC1(OCC)CC2C(=O)CCCC21OC(C)=O (stereo not drawn)
inactive: dose: 75.0 mg/kg/injection, schedule: Q04DX002 (ip), vehicle: saline 111 % of control | dose: 150.0 mg/kg/injection, schedule: Q04DX002 (ip), vehicle: saline 105 % of control | dose: 300.0 mg/kg/injection, schedule: Q04DX002 (ip), vehicle: saline 101 % of control

CC1([N+](=O)[O-])COCOC1
inactive: [11] 103 % of control | [12] 95 % of control | [13] 94 % of control

CC1(C)OCC(C2OC(N)C(O)C2O)O1 (stereo not drawn)
inactive: dose: 100.0 mg/kg/injection, schedule: Q04DX002 (ip), vehicle: saline 94 % of control | dose: 200.0 mg/kg/injection, schedule: Q04DX002 (ip), vehicle: saline 97 % of control | dose: 400.0 mg/kg/injection, schedule: Q04DX002 (ip), vehicle: saline 102 % of control

CCOC(=O)c1cc(C(=O)OCC)c(=O)oc1OCC
inactive: dose: 18.75 mg/kg/injection, schedule: Q01DX009 (ip), vehicle: acetone 105 % of control | dose: 37.5 mg/kg/injection, schedule: Q01DX009 (ip), vehicle: acetone 87 % of control | dose: 37.5 mg/kg/injection, schedule: Q04DX003 (ip), vehicle: saline 88 % of control | dose: 75.0 mg/kg/injection, schedule: Q01DX001 (ip), vehicle: saline 110 % of control | dose: 75.0 mg/kg/injection, schedule: Q01DX009 (ip), vehicle: acetone 87 % of control | dose: 75.0 mg/kg/injection, schedule: Q04DX003 (ip), vehicle: saline 90 % of control | dose: 150.0 mg/kg/injection, schedule: Q01DX001 (ip), vehicle: saline 97 % of control | dose: 150.0 mg/kg/injection, schedule: Q04DX003 (ip), vehicle: saline 93 % of control

O=C(O)COc1c(Cl)c(Cl)c(Cl)c(Cl)c1Cl
inactive: [3] 93 % of control

CC1(C)OC(=O)C(C(=O)O)C1c1ccccc1 (stereo not drawn)
inactive: [7] 97 % of control | [8] 94 % of control

c1ccc(P(c2ccccc2)N2CCN(P(c3ccccc3)c3ccccc3)CC2)cc1
inactive: dose: 100.0 mg/kg/injection, schedule: Q04DX002 (ip), vehicle: saline with Tween-80 96 % of control | dose: 200.0 mg/kg/injection, schedule: Q04DX002 (ip), vehicle: saline with Tween-80 93 % of control | dose: 400.0 mg/kg/injection, schedule: Q04DX002 (ip), vehicle: saline with Tween-80 104 % of control

O=C(N/N=C\c1ccccc1C(=O)O)c1ccco1
inactive: dose: 100.0 mg/kg/injection, schedule: Q01DX001 (ip), vehicle: other 87 % of control | dose: 200.0 mg/kg/injection, schedule: Q01DX001 (ip), vehicle: other 93 % of control | dose: 400.0 mg/kg/injection, schedule: Q01DX001 (ip), vehicle: other 90 % of control

Clc1ccc(Sc2ccc(Br)cc2)cc1
inactive: dose: 50.0 mg/kg/injection, schedule: Q01DX001 (ip), vehicle: carboxymethylcellulose (CMC) 103 % of control | [4] 101 % of control | [5] 103 % of control | [6] 101 % of control

COc1cccn(C/C=C(\C)CCC=C(C)C)c1=O
inactive: [1] 104 % of control | dose: 25.0 mg/kg/injection, schedule: Q04DX003 (ip), vehicle: saline with Tween-80 99 % of control | [2] 94 % of control | dose: 50.0 mg/kg/injection, schedule: Q04DX003 (ip), vehicle: saline with Tween-80 97 % of control | [3] 90 % of control | dose: 100.0 mg/kg/injection, schedule: Q04DX003 (ip), vehicle: saline with Tween-80 91 % of control

Reference: PubChem BioAssay AID248 (DTP/NCI, 2004)
